Experiment [1] deals with T1, 5-lipoxygenase (Cavia porcellus, UniProt A0A286X958).
T1 construct: synthesis of eicosanoids by guinea pig peritoneal neutrophils; endogenous in cells; host or cells: guinea pig peritoneal neutrophils
T1 sequence (A0A286X958 1-674): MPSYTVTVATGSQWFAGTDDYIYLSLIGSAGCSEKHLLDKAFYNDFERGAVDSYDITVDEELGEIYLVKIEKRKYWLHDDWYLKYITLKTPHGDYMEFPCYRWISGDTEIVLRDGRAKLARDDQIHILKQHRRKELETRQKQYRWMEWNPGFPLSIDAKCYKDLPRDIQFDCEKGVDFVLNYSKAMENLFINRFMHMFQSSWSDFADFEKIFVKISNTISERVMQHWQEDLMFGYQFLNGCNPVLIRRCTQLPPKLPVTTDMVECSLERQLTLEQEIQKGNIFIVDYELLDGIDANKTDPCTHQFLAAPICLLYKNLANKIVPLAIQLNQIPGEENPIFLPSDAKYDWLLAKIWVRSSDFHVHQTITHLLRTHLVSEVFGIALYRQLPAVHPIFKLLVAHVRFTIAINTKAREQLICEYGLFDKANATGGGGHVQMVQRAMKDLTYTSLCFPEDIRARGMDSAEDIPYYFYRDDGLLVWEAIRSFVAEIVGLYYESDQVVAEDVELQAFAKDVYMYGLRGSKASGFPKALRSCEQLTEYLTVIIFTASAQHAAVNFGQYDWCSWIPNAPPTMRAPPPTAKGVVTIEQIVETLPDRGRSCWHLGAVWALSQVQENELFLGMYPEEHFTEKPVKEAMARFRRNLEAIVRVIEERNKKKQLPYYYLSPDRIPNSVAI
Briefly: inhibition of eicosanoid synthesis by guinea pig peritoneal neutrophils: 5-lipoxygenase product (5-HETE) synthesis. The settings on record: [^14 C]-arachidonic acid and calcium ionophore. Type of experiment: cell-based. Here is the method: (§1) The compounds were tested for their activity as inhibitors of the synthesis of eicosanoids by guinea pig peritoneal neutrophils following the addition of [^14 C]-arachidonic acid and calcium ionophore, using a modification of the method published by Harvey et al [J. Pharmacol. Methods, Vol. 9(2), p 147-155 (1983)].

Experiment [2] deals with cyclooxygenase. In words: inhibition of eicosanoid synthesis by guinea pig peritoneal neutrophils: cyclooxygenase product (TX B2 and 5-HHT) synthesis. It is filed as cell-based. The settings on record: [^14 C]-arachidonic acid and calcium ionophore. As for the experimental part: as §1

Like-named read-outs stand apart in the source and are kept apart here. Where only a bound is given, the exact number is not on record here.

As a reminder, the IC50 is the concentration at which inhibition is half-maximal.

In the case of `CCSC12ON=C(c3ccc(OC)cc3)N1C(C)(C)C2(C)C` (stereo not drawn) [compound 4, 3-(p-methoxyphenyl)-5,5,6,6-tetramethyl-7-ethylthio-1-oxa-2,4-diazabicyclo[3.2.0]hept-2-ene], the IC50 in experiment [1] is greater than 100 µM; in experiment [2] (5-HHT synthesis, read-out: IC50 (5-HHT)), 6.3 µM; in experiment [2] (TXB2 synthesis, read-out: IC50 (TXB2)), 5 µM.

(Values after US5059596A, “Azabicyclo compounds” (Roussel Uclaf, priority 1989, dated 1991).)
